Data taken from US10377784B2, “Design, synthesis, and biological activity of platinum-benz[c]acridine hybrid agents and methods associated therewith” (Wake Forest University, priority 2014, dated 2019).

Key:
NCI-H520 = experiment: Cytotoxicity assay (MTS, Celltiter 96) in NCI-H520; format: cell-based, human; conditions: mean of duplicate experiments ± SD
Description: (§1) After successful synthesis and purification of P1-A1, P1-B1, and P1-B2 was completed, each drug was tested for its cell-kill ability in five non-small-cell lung cancer cell lines (Table 2).
(§2) ^aConcentration of compound that reduces cell viability by 50%, determined at 72 h of drug incubation using the MTS (3-(4,5-dimethylthiazol-2-yl)-5-(3-carboxymethoxyphenyl)-2-(4-sulfophenyl)-2H-tetrazolium) assay. Values are means of duplicate experiments±the standard deviation. ^bCompound not tested in this cell line.
(§3) The human non-small cell lung cancer cell lines, NCI-H460 (large cell), NCI-H520 (squamous cell), NCI-H522, NCI-H1435 and A549 (adenocarcinomas) were obtained from the American Type Culture Collection (Rockville, Md., USA). NCI-H460, NCI-H520 and NCI-H522 cells were cultured in RPMI-1640 media (HyClone) supplemented with 10% fetal bovine serum (FBS), […] (P&S), […], and 1.5 g/L NaHCO3. A549 cells were cultured in HAM's F12K media (Gibco) with the same additives as above. NCI-H1435 cells were cultured in serum-free 1:1 DMEM/F12 media (Gibco) containing 2.436 g/L NaHCO3, 0.02 mg/mL insulin, 0.01 mg/mL transferrin, 25 nM sodium selenite, 50 nM hydrocortisone, 1 ng/mL epidermal growth factor, 0.01 mM ethanolamine, 0.01 mM phosphorylethanolamine, 100 pM triiodothyronine, 0.5% (w/v) bovine serum albumin (BSA), 10 mM HEPES, 0.5 mM sodium pyruvate, and an extra 2 mM L-glutamine (final concentration 4.5 mM). Cells were incubated at a constant temperature at 37° C. in a humidified atmosphere containing 5% CO2 and were subcultured every 2 to 3 days in order to maintain cells in logarithmic growth, except for NCI-H1435 which was subcultured every 7 days.
(§4) The cytotoxicity studies were carried out according to a standard protocol using the Celltiter 96 aqueous nonradioactive cell proliferation assay kit (Promega, Madison, Wis.). Stock solutions (10 mM) of all drugs were made in DMF, except for P1-B2 which was made in DMSO, and serially diluted with media prior to incubation with cancer cells. IC50 values were calculated from nonlinear curve fits using a sigmoidal dose-response equation in GraphPad Prism (GraphPad Software, La Jolla, Calif.).

NCI-H460 = experiment: Cytotoxicity assay (MTS, Celltiter 96) in NCI-H460; format: cell-based, human; conditions: for IC50: 72 h drug incubation, MTS assay, mean of duplicate experiments ± SD
Description: as §1, §2, §3, §4

A549 = experiment: Cytotoxicity assay (MTS, Celltiter 96) in A549; format: cell-based, human; conditions: 72 h drug incubation, mean of duplicate experiments ± SD
Description: as §1, §2, §3
as §4, with “Stock solutions (10 mM) of all drugs were made in DMF, except for P1-B2 which was made in DMSO, and serially diluted with media prior to incubation with cancer cells.” left out

NCI-H522 = experiment: Cytotoxicity assay (MTS, Celltiter 96) in NCI-H522; format: cell-based, human; conditions: 72 h drug incubation, mean of duplicate experiments ± SD
Description: as §1, §2, §3
as §4, with “Stock solutions (10 mM) of all drugs were made in DMF, except for P1-B2 which was made in DMSO, and serially diluted with media prior to incubation with cancer cells.” left out

NCI-H1435 = experiment: Cytotoxicity assay (MTS, Celltiter 96) in NCI-H1435; format: cell-based, human; conditions: 72 h drug incubation, mean of duplicate experiments ± SD
Description: as §1, §2, §3
as §4, with “Stock solutions (10 mM) of all drugs were made in DMF, except for P1-B2 which was made in DMSO, and serially diluted with media prior to incubation with cancer cells.” left out

G-quadruplex DNA = G-quadruplex DNA recognition and platination; format: binding; conditions: for Selective recognition of G-quadruplex DNA: displayed by induced circular dichroism (ICD)
[1] = Spectrophotometric determination of pKa values for platinum complexes; format: physicochemical; conditions: spectrophotometric titration at 25° C.; numeric values only in Chart 3 drawing
Description: The pKa values of P1-A1, P1-B1 and P1-B2 were determined spectrophotometrically using a Hewlett Packard 8354 spectrophotometer equipped with a Peltier temperature control and a cell stirring module. Titrations were carried out at 25° C. in the pH range 2-11 with a micro combination electrode placed inside the cuvette. Solutions of P1-A1 (˜100 μM), P1-B1 (˜100 μM), and P1-B2 (˜50 μM) in 0.1 M HCl/100 mM NaCl were titrated with aliquots of 0.4 M, 0.04M, and 0.004M KOH, and UV-Vis spectra were recorded after a 2 min equilibration time. The protonation state of the chromophores was deduced from spectral changes around isosbestic points. The pKa values were determined graphically from plots of pH vs. log[k(Aacr/AacrH+)], where k=εacrH+/εacr using suitable absorbance maxima. The pKa values of P1-A1 and P1-B1 were determined at the y-intercept of the plot. […] Reported pKa values are means of three measurements+/−the standard deviation.

RNA from NCI-H460 cells = experiment: Platinum content associated with RNA in NCI-H460 cells (ICP-MS); format: cell-based, human; conditions: 1 μM drug, 3 h, p<0.05
Description: (§5) To determine the platinum content of nucleic acid material, DNA and RNA was extracted and purified from cells using the Qiagen AllPrep DNA/RNA Mini Kit (Qiagen, Alameda, Calif., USA). 1.5×10^6 exponentially-growing NCI-H460 cells were seeded into 60-mm cell culture dishes with 2 mL of media and were allowed to attach for 24 hours. Cells were incubated in the presence of 1 μM P1-A1 or P1-B1 at 37° C. for various time intervals. Incubations were performed in triplicate for each incubation condition/time point. To quench the incubations, cells were washed three times in cold PBS. The cells were harvested via trypsinization and removed from the dishes with successive washes of cold PBS. Cell suspensions were centrifuged at 1500 rpm for 5min at 4° C. The cell pellet was re-suspended in 5 mL of cold PBS and centrifuged at 1500 rpm for 5 min at 4° C. The supernatant was removed and the DNA/RNA was extracted from the pellet according to the protocol provided by the manufacturer. The concentration and purity of each sample was determined spectrophotometrically (triplicate readings at 260 and 280 nm).
(§6) Platinum content was determined by ICP-MS.

[2] = test system: non-small-cell lung cancer cell lines; experiment: Cytotoxicity across NSCLC lines (summary statements); format: cell-based, human
Description: as §1
When observing the structure-activity relationship of the platinum hybrid agents, it is important to note the increased cytotoxicity upon addition of the platinum module.
The human non-small cell lung cancer cell lines, NCI-H460 (large cell), NCI-H520 (squamous cell), NCI-H522, NCI-H1435 and A549 (adenocarcinomas) were obtained from the American Type Culture Collection (Rockville, Md., USA). NCI-H460, NCI-H520 and NCI-H522 cells were cultured in RPMI-1640 media (HyClone) supplemented with 10% fetal bovine serum (FBS), […] (P&S), […], and 1.5 g/L NaHCO3. A549 cells were cultured in HAM's F12K media (Gibco) with the same additives as above. […]
as §4, with “Stock solutions (10 mM) of all drugs were made in DMF, except for P1-B2 which was made in DMSO, and serially diluted with media prior to incubation with cancer cells.” left out

DNA from NCI-H460 cells = experiment: Platinum content associated with DNA in NCI-H460 cells (ICP-MS); format: cell-based, human; conditions: 1 μM drug, both time points, p>0.05
Description: as §5, §6

[3] = Homo sapiens, NCI-H520, 72 h drug incubation

Molecule: CNCCNc1c2ccccc2nc2c1ccc1ccccc12 [Compound B1, N1-(benzo[c]acridin-7-yl)-N2-methylethane-1,2-diamine]
- IC50 (NCI-H520; [3]): 1.8 ± 0.1 µM
- IC50 (NCI-H460; Homo sapiens, NCI-H460): 0.9 ± 0.1 µM
- IC50 value (in words) (NCI-H460; NCI-H460 cells, 72 h incubation, chromophore module alone): sub-micromolar range

Molecule: CNCCNc1c2cc([N+](=O)[O-])ccc2nc2c1ccc1ccccc12 [Compound B2, N1-methyl-N2-(9-nitrobenzo[c]acridin-7-yl)ethane-1,2-diamine]
- IC50 (NCI-H520; [3]): 3.35 ± 0.08 µM
- IC50 (NCI-H460; Homo sapiens, NCI-H460): 2.08 ± 0.04 µM

Molecule: [Pt(Cl)(NH3)2(N-(2-(acridin-9-ylamino)ethyl)-N-methylpropionimidamide)] Cl [Compound P1-A1, reference compound]
- IC50 (A549): 0.0065 ± 0.0002 µM
- IC50 (NCI-H522): 0.01 ± 0.0007 µM
- IC50 (NCI-H1435): 0.84 ± 0.07 µM
- IC50 (NCI-H520; 72 h drug incubation): 0.043 ± 0.004 µM
- Selective recognition of G-quadruplex DNA (G-quadruplex DNA): not previously displayed
- IC50 (NCI-H460): 0.0052 ± 6e-05 µM
- pKa (rank among the three Pt-chromophore hybrid agents) [1]: highest

Molecule: [Pt(Cl)(NH3)2(N-(2-(benzo[c]acridin-7-ylamino)ethyl)-N-methylpropionimidamide)] Cl [Compound P1-B1]
- IC50 (A549): 0.32 ± 0.06 µM
- IC50 (NCI-H522): 0.12 ± 0.02 µM
- IC50 (NCI-H1435): 1.479 ± 0.009 µM
- IC50 (NCI-H520; 72 h drug incubation): 0.516 ± 0.009 µM
- folding and irreversible platination of G-quadruplex DNA (G-quadruplex DNA): ability to fold and irreversibly platinate G-quadruplex DNA
- Selective recognition of G-quadruplex DNA (G-quadruplex DNA): Selective recognition of G-quadruplex DNA
- platinum level observed in the RNA of treated cells (RNA from NCI-H460 cells): statistically significant
- IC50 (NCI-H460): 0.24 ± 0.01 µM
- cytotoxicity (in words) ([2]; 72 hour incubations, extremely aggressive NSCLC models): nanomolar cytotoxicity
- IC50 ([2]; NSCLC lines tested except NCI-H1435): 100 to 500 nM
- platinum level observed in the DNA of treated cells vs control cells (DNA from NCI-H460 cells): not statistically significant

Molecule: [Pt(Cl)(NH3)2(N-methyl-N-(2-((9-nitrobenzo[c]acridin-7-yl)amino)ethyl)propionimidamide)] Cl •1/3 DMF [Compound P1-B2]
- IC50 (A549): 12.4 ± 0.9 µM
- IC50 (NCI-H522): 3.62 ± 0.08 µM
- IC50 (NCI-H1435): 11 ± 0.2 µM
- IC50 (NCI-H520; 72 h drug incubation): 2.2 ± 0.1 µM
- folding and irreversible platination of G-quadruplex DNA (G-quadruplex DNA): ability to fold and irreversibly platinate G-quadruplex DNA
- Selective recognition of G-quadruplex DNA (G-quadruplex DNA): Selective recognition of G-quadruplex DNA
- IC50 (NCI-H460): 2.4 ± 0.5 µM
- pKa (rank among the three Pt-chromophore hybrid agents) [1]: lowest
